Assay results: ChEMBL document CHEMBL5113369, “A review on the structure and pharmacological activity of phenylethanoid glycosides” (Eur J Med Chem, 2021)

Columns and labels:
Type in all cases: ADME, organism-based, Canis lupus familiaris
Settings in all cases: in vivo, dose 10-40 mg/kg
[1] = Tmax in Beagle dog at 10 to 40 mg/kg, po measured up to 8 hrs by LC-MS/MS analysis
[2] = Oral bioavailability in Beagle dog at 10 to 40 mg/kg measured up to 8 hrs by LC-MS/MS analysis
[3] = Half life in Beagle dog at 10 to 40 mg/kg, po measured up to 8 hrs by LC-MS/MS analysis

SMILES: C[C@@H]1O[C@@H](O[C@@H]2[C@@H](O)[C@H](OCCc3ccc(O)c(O)c3)O[C@H](CO)[C@H]2OC(=O)/C=C/c2ccc(O)c(O)c2)[C@H](O)[C@H](O)[C@H]1O [ACETOSIDE]
- Tmax [1]: 0.5 h
- bioavailability [2]: 4%
- half-life [3]: 1.5 h
